Calls of active or inactive are those of the source. The calls are words filed in the database; no cut-off is given here.
These compounds were tested on SVR (assay: Antiproliferative activity against mouse SVR cells at 20 ug/ml after 48 hrs by Coulter counting method).
Format: functional, cell-based

SMILES | Activity
CN(C)c1ccc(/C=C/C(=O)c2ccco2)cc1 | Active
Cc1cc(C)n(-c2nc(-c3ccccc3)cc(-c3ccccc3)n2)n1 | Active
COc1cc(/C=C/C(=O)CC(=O)/C=C/c2ccc(O)c(OC)c2)ccc1O | Active
Cc1cccc(-c2nnc(-c3cccc(NC(=O)c4ccco4)c3)o2)c1 | Active
Brc1ccc(/C=N/Nc2nc(-c3ccccc3)cc(-c3ccccc3)n2)cc1 | Active

These compounds were tested against Matrix metalloproteinase-9 (Homo sapiens, UniProt P14780) (assay: Inhibition of MMP9).
Chain of Matrix metalloproteinase-9 (P14780 whole entry): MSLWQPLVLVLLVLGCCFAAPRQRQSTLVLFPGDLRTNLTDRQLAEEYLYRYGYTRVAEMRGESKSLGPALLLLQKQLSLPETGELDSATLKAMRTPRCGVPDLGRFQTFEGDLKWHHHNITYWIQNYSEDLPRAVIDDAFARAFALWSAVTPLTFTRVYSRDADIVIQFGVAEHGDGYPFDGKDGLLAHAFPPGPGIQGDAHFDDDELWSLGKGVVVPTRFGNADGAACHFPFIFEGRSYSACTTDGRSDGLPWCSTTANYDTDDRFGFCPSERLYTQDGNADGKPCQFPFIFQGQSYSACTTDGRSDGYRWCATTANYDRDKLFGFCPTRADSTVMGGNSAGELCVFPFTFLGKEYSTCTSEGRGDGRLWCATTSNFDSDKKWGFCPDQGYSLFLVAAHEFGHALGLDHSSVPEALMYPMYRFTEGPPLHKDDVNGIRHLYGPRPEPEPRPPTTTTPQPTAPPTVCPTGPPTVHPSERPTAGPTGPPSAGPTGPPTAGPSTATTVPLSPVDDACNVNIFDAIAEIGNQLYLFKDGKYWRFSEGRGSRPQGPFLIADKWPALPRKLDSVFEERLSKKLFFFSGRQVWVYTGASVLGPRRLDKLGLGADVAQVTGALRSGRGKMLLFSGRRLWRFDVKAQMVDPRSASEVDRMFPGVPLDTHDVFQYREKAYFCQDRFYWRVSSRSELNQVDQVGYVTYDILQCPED

SMILES | IC50
CC1(C)C[C@@H](C(CS(=O)(=O)c2ccc(Oc3ccc(OC(F)(F)F)cc3)cc2)N(O)C=O)N(S(C)(=O)=O)C1 (some centres not stated) | 2 nM
CC1(C)NC(=O)N(CC(CS(=O)(=O)c2ccc(Oc3ccc(Cl)cc3)cc2)N(O)C=O)C1=O (configuration not stated) | 37 nM
CCC1(CC)OC[C@H](C(CS(=O)(=O)c2ccc(Oc3ccc(OC(F)(F)F)cc3)cc2)N(O)C=O)O1 (some centres not stated) | 1.1 nM
O=CN(O)C(CS(=O)(=O)c1ccc(Oc2ccc(OC(F)(F)F)cc2)cc1)C(CO)CO (configuration not stated) | 0.49 nM
CC1(C)NC(=O)N(CC(CS(=O)(=O)c2ccc(-c3ccc(OC(F)(F)F)cc3)cc2)N(O)C=O)C1=O (configuration not stated) | 0.34 nM
CC1(C)OC[C@H](C(CS(=O)(=O)c2ccc(Oc3ccc(OC(F)(F)F)cc3)cc2)N(O)C=O)O1 (some centres not stated) | 0.5 nM
C[C@@H]1OC(C)(C)O[C@H]1C(CS(=O)(=O)c1ccc(Oc2ccc(OC(F)(F)F)cc2)cc1)N(O)C=O (some centres not stated) | 1.1 nM

From ChEMBL document CHEMBL2040824, “The impact of ionization States of matrix metalloproteinase inhibitors on docking-based inhibitor design” (ACS Med Chem Lett, 2011)
